Legend:
Test in all cases: KINOMEscan scanMAX
Type in all cases: binding
Details in all cases: read-out: Percent Control
[1] = target: T1, ABL1(T315I)-phosphorylated (Homo sapiens, UniProt P00519, T315I)
T1 construct: purchased Eurofins Discovery (DiscoverX KINOMEscan scanMAX)
Procedure: (§1) The kinome-wide binding assay was performed by Eurofins Discovery using the scanMAX screening platform. More information can be found on the Eurofins Discovery Web site.

AKT2 = target: T2, AKT2 (Homo sapiens, UniProt P31751)
T2 construct: purchased Eurofins Discovery (DiscoverX KINOMEscan scanMAX)
Procedure: as §1

ANKK1 = target: T3, ANKK1 (Homo sapiens, UniProt Q8NFD2)
T3 construct: purchased Eurofins Discovery (DiscoverX KINOMEscan scanMAX)
Procedure: as §1

ARK5 = target: T4, ARK5 (Homo sapiens, UniProt O60285)
T4 construct: purchased Eurofins Discovery (DiscoverX KINOMEscan scanMAX)
Procedure: as §1

CAMK1G = target: T5, CAMK1G (Homo sapiens, UniProt Q96NX5)
T5 construct: purchased Eurofins Discovery (DiscoverX KINOMEscan scanMAX)
Procedure: as §1

CASK = target: T6, CASK (Homo sapiens, UniProt O14936)
T6 construct: purchased Eurofins Discovery (DiscoverX KINOMEscan scanMAX)
Procedure: as §1

CSF1R-autoinhibited = target: T7, CSF1R-autoinhibited (Homo sapiens, UniProt P07333)
T7 construct: purchased Eurofins Discovery (DiscoverX KINOMEscan scanMAX)
Procedure: as §1

CTK = target: T8, CTK (Homo sapiens, UniProt P42679)
T8 construct: purchased Eurofins Discovery (DiscoverX KINOMEscan scanMAX)
Procedure: as §1

DDR1 = target: T9, DDR1 (Homo sapiens, UniProt Q08345)
T9 construct: purchased Eurofins Discovery (DiscoverX KINOMEscan scanMAX)
Procedure: as §1

[2] = target: T10, EGFR(L747-S752del, P753S) (Homo sapiens, UniProt P00533, DEL747-752/P753S)
T10 construct: purchased Eurofins Discovery (DiscoverX KINOMEscan scanMAX)
Procedure: as §1

EPHB1 = target: T11, EPHB1 (Homo sapiens, UniProt P54762)
T11 construct: purchased Eurofins Discovery (DiscoverX KINOMEscan scanMAX)
Procedure: as §1

EPHB3 = target: T12, EPHB3 (Homo sapiens, UniProt P54753)
T12 construct: purchased Eurofins Discovery (DiscoverX KINOMEscan scanMAX)
Procedure: as §1

EPHB4 = target: T13, EPHB4 (Homo sapiens, UniProt P54760)
T13 construct: purchased Eurofins Discovery (DiscoverX KINOMEscan scanMAX)
Procedure: as §1

ERBB2 = target: T14, ERBB2 (Homo sapiens, UniProt P04626)
T14 construct: purchased Eurofins Discovery (DiscoverX KINOMEscan scanMAX)
Procedure: as §1

ERN1 = target: T15, ERN1 (Homo sapiens, UniProt O75460)
T15 construct: purchased Eurofins Discovery (DiscoverX KINOMEscan scanMAX)
Procedure: as §1

FGR = target: T16, FGR (Homo sapiens, UniProt P09769)
T16 construct: purchased Eurofins Discovery (DiscoverX KINOMEscan scanMAX)
Procedure: as §1

FLT3(R834Q) = target: T17, FLT3(R834Q) (Homo sapiens, UniProt P36888, R834Q)
T17 construct: purchased Eurofins Discovery (DiscoverX KINOMEscan scanMAX)
Procedure: as §1

FLT3-autoinhibited = target: T18, FLT3-autoinhibited (Homo sapiens, UniProt P36888)
T18 construct: purchased Eurofins Discovery (DiscoverX KINOMEscan scanMAX)
Procedure: as §1

JNK1 = target: T19, JNK1 (Homo sapiens, UniProt P45983)
T19 construct: purchased Eurofins Discovery (DiscoverX KINOMEscan scanMAX)
Procedure: as §1

LRRK2 = target: T20, LRRK2 (Homo sapiens, UniProt Q5S007)
T20 construct: purchased Eurofins Discovery (DiscoverX KINOMEscan scanMAX)
Procedure: as §1

MEK5 = target: T21, MEK5 (Homo sapiens, UniProt Q13163)
T21 construct: purchased Eurofins Discovery (DiscoverX KINOMEscan scanMAX)
Procedure: as §1

MET = target: T22, MET (Homo sapiens, UniProt P08581)
T22 construct: purchased Eurofins Discovery (DiscoverX KINOMEscan scanMAX)
Procedure: as §1

MST1R = target: T23, MST1R (Homo sapiens, UniProt Q04912)
T23 construct: purchased Eurofins Discovery (DiscoverX KINOMEscan scanMAX)
Procedure: as §1

MYO3A = target: T24, MYO3A (Homo sapiens, UniProt Q8NEV4)
T24 construct: purchased Eurofins Discovery (DiscoverX KINOMEscan scanMAX)
Procedure: as §1

PIK4CB = target: T25, PIK4CB (Homo sapiens, UniProt Q9UBF8)
T25 construct: purchased Eurofins Discovery (DiscoverX KINOMEscan scanMAX)
Procedure: as §1

PRKCH = target: T26, PRKCH (Homo sapiens, UniProt P24723)
T26 construct: purchased Eurofins Discovery (DiscoverX KINOMEscan scanMAX)
Procedure: as §1

PRP4 = target: T27, PRP4 (Homo sapiens, UniProt Q13523)
T27 construct: purchased Eurofins Discovery (DiscoverX KINOMEscan scanMAX)
Procedure: as §1

SGK2 = target: T28, SGK2 (Homo sapiens, UniProt Q9HBY8)
T28 construct: purchased Eurofins Discovery (DiscoverX KINOMEscan scanMAX)
Procedure: as §1

STK39 = target: T29, STK39 (Homo sapiens, UniProt Q9UEW8)
T29 construct: purchased Eurofins Discovery (DiscoverX KINOMEscan scanMAX)
Procedure: as §1

SYK = target: T30, SYK (Homo sapiens, UniProt P43405)
T30 construct: purchased Eurofins Discovery (DiscoverX KINOMEscan scanMAX)
Procedure: as §1

TESK1 = target: T31, TESK1 (Homo sapiens, UniProt Q15569)
T31 construct: purchased Eurofins Discovery (DiscoverX KINOMEscan scanMAX)
Procedure: as §1

TNK1 = target: T32, TNK1 (Homo sapiens, UniProt Q13470)
T32 construct: purchased Eurofins Discovery (DiscoverX KINOMEscan scanMAX)
Procedure: as §1

WEE1 = target: T33, WEE1 (Homo sapiens, UniProt P30291)
T33 construct: purchased Eurofins Discovery (DiscoverX KINOMEscan scanMAX)
Procedure: as §1

YANK2 = target: T34, YANK2 (Homo sapiens, UniProt Q9NY57)
T34 construct: purchased Eurofins Discovery (DiscoverX KINOMEscan scanMAX)
Procedure: as §1

T8 sequence (P42679 whole entry): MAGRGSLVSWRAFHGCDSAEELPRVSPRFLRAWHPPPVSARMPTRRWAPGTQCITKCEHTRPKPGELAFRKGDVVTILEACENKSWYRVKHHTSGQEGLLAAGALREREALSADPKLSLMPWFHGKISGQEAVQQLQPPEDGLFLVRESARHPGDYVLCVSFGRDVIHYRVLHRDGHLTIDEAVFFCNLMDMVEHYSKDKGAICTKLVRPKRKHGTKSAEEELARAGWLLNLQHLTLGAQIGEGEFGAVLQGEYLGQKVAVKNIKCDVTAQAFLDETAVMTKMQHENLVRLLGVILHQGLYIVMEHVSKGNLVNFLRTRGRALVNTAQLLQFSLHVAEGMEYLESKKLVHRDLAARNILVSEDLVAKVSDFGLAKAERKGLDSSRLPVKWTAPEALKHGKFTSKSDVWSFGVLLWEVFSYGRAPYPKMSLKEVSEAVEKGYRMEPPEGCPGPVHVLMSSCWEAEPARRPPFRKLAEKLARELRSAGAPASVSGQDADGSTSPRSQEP
T15 sequence (O75460 19-977): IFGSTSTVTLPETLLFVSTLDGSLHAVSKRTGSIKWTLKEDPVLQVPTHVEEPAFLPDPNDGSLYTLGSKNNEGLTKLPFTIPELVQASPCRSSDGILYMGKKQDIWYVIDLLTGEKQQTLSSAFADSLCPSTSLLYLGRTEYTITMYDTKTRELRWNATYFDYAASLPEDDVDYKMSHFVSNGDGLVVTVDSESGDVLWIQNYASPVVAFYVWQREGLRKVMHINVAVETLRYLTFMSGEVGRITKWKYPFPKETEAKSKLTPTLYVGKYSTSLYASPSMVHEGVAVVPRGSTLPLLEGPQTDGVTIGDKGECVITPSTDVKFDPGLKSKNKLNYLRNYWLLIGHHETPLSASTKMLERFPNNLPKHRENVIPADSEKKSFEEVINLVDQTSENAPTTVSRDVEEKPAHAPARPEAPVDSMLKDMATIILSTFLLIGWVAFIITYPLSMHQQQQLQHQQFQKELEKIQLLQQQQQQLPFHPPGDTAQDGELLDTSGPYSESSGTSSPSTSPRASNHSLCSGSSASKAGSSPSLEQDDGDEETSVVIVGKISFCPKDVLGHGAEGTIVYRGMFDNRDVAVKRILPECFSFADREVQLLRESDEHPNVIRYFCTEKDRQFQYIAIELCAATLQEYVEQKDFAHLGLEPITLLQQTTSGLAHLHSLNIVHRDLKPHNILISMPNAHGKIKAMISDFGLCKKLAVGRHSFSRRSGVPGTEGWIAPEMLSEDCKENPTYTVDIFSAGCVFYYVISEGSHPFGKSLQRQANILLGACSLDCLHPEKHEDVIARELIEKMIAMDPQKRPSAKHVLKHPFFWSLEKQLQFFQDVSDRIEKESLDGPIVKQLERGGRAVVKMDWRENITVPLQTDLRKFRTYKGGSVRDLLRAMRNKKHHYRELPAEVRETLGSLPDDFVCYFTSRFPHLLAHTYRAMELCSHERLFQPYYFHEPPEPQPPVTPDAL
T21 sequence (Q13163 whole entry): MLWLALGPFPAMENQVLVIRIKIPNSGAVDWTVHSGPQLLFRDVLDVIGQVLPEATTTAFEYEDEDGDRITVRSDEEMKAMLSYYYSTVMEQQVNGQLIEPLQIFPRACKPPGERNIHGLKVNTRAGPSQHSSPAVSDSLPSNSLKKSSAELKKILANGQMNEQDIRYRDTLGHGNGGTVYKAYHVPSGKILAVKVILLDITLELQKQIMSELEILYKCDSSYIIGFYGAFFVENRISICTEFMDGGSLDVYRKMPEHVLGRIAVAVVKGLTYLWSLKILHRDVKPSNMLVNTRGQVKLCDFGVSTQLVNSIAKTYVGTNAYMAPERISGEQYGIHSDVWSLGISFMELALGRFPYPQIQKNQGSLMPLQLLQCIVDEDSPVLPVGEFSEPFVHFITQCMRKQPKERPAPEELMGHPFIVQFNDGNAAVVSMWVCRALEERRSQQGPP
T6 sequence (O14936 whole entry): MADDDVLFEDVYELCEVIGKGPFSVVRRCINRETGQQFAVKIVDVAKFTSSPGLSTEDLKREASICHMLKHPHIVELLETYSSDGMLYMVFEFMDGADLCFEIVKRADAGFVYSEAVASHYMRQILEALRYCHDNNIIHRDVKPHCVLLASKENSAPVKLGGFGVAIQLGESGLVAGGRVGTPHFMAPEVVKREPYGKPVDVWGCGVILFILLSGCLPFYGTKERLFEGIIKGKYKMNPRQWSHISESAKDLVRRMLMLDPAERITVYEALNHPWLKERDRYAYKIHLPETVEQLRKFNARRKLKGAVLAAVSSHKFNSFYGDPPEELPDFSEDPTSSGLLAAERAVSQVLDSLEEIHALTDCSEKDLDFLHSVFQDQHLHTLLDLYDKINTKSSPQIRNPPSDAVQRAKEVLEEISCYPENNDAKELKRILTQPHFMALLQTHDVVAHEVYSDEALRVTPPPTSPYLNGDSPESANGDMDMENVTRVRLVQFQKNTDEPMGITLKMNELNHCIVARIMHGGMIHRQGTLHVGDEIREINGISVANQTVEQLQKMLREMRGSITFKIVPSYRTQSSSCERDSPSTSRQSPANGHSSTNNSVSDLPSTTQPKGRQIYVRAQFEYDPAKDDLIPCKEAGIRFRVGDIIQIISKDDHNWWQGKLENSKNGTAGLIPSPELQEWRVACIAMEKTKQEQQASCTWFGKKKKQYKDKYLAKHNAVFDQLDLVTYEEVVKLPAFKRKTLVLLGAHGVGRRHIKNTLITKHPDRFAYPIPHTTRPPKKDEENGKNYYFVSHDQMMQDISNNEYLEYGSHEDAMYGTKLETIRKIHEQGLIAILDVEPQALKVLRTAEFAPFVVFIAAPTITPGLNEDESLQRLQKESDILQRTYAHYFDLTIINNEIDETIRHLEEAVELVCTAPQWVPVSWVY
T11 sequence (P54762 18-984): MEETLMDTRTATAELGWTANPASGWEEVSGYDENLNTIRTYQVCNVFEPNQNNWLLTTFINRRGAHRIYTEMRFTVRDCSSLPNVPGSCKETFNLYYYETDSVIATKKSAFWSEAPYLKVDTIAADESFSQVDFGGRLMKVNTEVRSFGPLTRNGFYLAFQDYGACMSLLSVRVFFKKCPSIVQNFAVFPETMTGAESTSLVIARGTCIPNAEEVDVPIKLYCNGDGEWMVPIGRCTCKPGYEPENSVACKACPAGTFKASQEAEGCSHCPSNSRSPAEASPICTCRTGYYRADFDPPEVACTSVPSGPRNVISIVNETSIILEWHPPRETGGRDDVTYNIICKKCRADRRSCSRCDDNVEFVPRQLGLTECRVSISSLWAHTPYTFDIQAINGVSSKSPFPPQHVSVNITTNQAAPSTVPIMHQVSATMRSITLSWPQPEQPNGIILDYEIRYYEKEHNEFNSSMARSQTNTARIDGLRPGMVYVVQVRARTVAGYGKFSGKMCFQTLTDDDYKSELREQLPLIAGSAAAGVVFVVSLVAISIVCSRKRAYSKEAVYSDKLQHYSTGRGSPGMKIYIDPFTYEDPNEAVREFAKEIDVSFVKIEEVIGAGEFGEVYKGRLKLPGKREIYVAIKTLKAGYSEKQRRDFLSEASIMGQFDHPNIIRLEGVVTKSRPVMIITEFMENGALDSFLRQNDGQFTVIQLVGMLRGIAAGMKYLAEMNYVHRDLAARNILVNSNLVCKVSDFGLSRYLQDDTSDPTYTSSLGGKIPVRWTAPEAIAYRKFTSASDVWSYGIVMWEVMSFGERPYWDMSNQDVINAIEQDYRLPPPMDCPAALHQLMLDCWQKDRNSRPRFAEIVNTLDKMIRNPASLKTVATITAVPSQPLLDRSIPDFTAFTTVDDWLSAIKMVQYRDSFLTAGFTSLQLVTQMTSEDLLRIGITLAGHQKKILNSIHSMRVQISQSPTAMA
T9 sequence (Q08345 19-913): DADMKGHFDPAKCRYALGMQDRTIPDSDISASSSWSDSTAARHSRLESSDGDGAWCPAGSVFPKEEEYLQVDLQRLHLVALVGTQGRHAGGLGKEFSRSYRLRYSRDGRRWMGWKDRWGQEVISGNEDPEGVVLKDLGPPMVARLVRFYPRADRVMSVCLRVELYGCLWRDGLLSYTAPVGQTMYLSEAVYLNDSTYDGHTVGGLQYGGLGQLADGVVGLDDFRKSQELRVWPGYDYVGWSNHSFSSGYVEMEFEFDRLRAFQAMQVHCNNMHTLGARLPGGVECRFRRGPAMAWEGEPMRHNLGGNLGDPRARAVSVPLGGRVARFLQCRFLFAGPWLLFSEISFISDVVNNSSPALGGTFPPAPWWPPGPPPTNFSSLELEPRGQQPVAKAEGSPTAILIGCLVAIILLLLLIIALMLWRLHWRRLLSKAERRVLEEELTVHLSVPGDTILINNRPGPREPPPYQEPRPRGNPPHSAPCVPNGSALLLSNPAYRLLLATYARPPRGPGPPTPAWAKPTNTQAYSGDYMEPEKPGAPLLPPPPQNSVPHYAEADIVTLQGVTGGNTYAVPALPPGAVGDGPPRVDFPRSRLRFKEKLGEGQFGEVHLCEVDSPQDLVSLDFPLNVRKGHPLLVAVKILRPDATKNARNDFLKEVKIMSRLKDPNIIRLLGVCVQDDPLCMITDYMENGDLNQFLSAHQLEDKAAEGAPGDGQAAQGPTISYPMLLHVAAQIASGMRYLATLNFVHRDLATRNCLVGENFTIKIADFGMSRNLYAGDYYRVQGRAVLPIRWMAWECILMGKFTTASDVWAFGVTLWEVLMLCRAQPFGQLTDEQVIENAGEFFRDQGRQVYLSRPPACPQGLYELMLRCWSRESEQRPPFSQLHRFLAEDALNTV
T10 sequence (P00533 with tags, fused parts or gaps DEL747-752/P753S limits assumed): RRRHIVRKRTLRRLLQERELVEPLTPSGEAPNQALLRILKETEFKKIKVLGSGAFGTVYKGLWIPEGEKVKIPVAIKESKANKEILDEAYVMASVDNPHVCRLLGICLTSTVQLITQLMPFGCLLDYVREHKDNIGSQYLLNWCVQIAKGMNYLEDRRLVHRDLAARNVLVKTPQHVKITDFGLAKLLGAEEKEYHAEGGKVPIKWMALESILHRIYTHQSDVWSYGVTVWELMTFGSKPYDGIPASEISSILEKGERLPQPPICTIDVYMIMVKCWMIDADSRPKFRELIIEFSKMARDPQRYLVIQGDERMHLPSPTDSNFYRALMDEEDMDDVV

Cc1cc(Nc2ccc(F)c(CC3(C(=O)N4CCC(F)(CN5CCN(c6ccc(N7CCC(=O)NC7=O)cn6)CC5)CC4)CCN(Cc4cccc(Cl)c4F)CC3)n2)n[nH]1 [SK5527]
remaining binding at 0.1 µM ([1]; 100 nM): 62% | remaining binding at 1 µM ([1]; 1000 nM): 17% | remaining binding at 0.1 µM (AKT2; 100 nM): 98% | remaining binding at 1 µM (AKT2; 1000 nM): 98% | remaining binding at 0.1 µM (ANKK1; 100 nM): 73% | remaining binding at 1 µM (ANKK1; 1000 nM): 71% | remaining binding at 0.1 µM (ARK5; 100 nM): 83% | remaining binding at 1 µM (ARK5; 1000 nM): 90% | remaining binding at 0.1 µM (CAMK1G; 100 nM): 100% | remaining binding at 1 µM (CAMK1G; 1000 nM): 92% | remaining binding at 0.1 µM (CASK; 100 nM): 93% | remaining binding at 1 µM (CASK; 1000 nM): 87% | remaining binding at 0.1 µM (CSF1R-autoinhibited; 100 nM): 100% | remaining binding at 1 µM (CSF1R-autoinhibited; 1000 nM): 100% | remaining binding at 0.1 µM (CTK; 100 nM): 100% | remaining binding at 1 µM (CTK; 1000 nM): 91% | remaining binding at 0.1 µM (DDR1; 100 nM): 98% | remaining binding at 1 µM (DDR1; 1000 nM): 93% | remaining binding at 0.1 µM ([2]; 100 nM): 81% | remaining binding at 1 µM ([2]; 1000 nM): 65% | remaining binding at 0.1 µM (EPHB1; 100 nM): 96% | remaining binding at 1 µM (EPHB1; 1000 nM): 79% | remaining binding at 0.1 µM (EPHB3; 100 nM): 100% | remaining binding at 1 µM (EPHB3; 1000 nM): 100% | remaining binding at 0.1 µM (EPHB4; 100 nM): 100% | remaining binding at 1 µM (EPHB4; 1000 nM): 100% | remaining binding at 0.1 µM (ERBB2; 100 nM): 100% | remaining binding at 1 µM (ERBB2; 1000 nM): 100% | remaining binding at 0.1 µM (ERN1; 100 nM): 100% | remaining binding at 1 µM (ERN1; 1000 nM): 100% | remaining binding at 0.1 µM (FGR; 100 nM): 89% | remaining binding at 1 µM (FGR; 1000 nM): 61% | remaining binding at 0.1 µM (FLT3(R834Q); 100 nM): 86% | remaining binding at 1 µM (FLT3(R834Q); 1000 nM): 75% | remaining binding at 0.1 µM (FLT3-autoinhibited; 100 nM): 96% | remaining binding at 1 µM (FLT3-autoinhibited; 1000 nM): 68% | remaining binding at 0.1 µM (JNK1; 100 nM): 72% | remaining binding at 1 µM (JNK1; 1000 nM): 95% | remaining binding at 0.1 µM (LRRK2; 100 nM): 100% | remaining binding at 1 µM (LRRK2; 1000 nM): 94% | remaining binding at 0.1 µM (MEK5; 100 nM): 83% | remaining binding at 1 µM (MEK5; 1000 nM): 61% | remaining binding at 0.1 µM (MET; 100 nM): 94% | remaining binding at 1 µM (MET; 1000 nM): 81% | remaining binding at 0.1 µM (MST1R; 100 nM): 100% | remaining binding at 1 µM (MST1R; 1000 nM): 100% | remaining binding at 0.1 µM (MYO3A; 100 nM): 100% | remaining binding at 1 µM (MYO3A; 1000 nM): 100% | remaining binding at 0.1 µM (PIK4CB; 100 nM): 73% | remaining binding at 1 µM (PIK4CB; 1000 nM): 65% | remaining binding at 0.1 µM (PRKCH; 100 nM): 96% | remaining binding at 1 µM (PRKCH; 1000 nM): 100% | remaining binding at 0.1 µM (PRP4; 100 nM): 100% | remaining binding at 1 µM (PRP4; 1000 nM): 74% | remaining binding at 0.1 µM (SGK2; 100 nM): 93% | remaining binding at 1 µM (SGK2; 1000 nM): 83% | remaining binding at 0.1 µM (STK39; 100 nM): 100% | remaining binding at 1 µM (STK39; 1000 nM): 85% | remaining binding at 0.1 µM (SYK; 100 nM): 83% | remaining binding at 1 µM (SYK; 1000 nM): 100% | remaining binding at 0.1 µM (TESK1; 100 nM): 66% | remaining binding at 1 µM (TESK1; 1000 nM): 83% | remaining binding at 0.1 µM (TNK1; 100 nM): 66% | remaining binding at 1 µM (TNK1; 1000 nM): 44% | remaining binding at 0.1 µM (WEE1; 100 nM): 99% | remaining binding at 1 µM (WEE1; 1000 nM): 87% | remaining binding at 0.1 µM (YANK2; 100 nM): 100% | remaining binding at 1 µM (YANK2; 1000 nM): 100%

— publication PMC12670405, “Second-Generation AURKA-Targeting PROTACs: Structural Optimization toward in Vivo Degradation in Neuroblastoma” (Journal of Medicinal Chemistry, 2025)
